“Also recorded” adds a separate entry of the source.
Tests used:
A375-NRAS^Q61K [1] = experiment: Pan-Cancer PepTile fitness screen (lentiviral 40-mer peptide library, NGS abundance); assay type: cell-based, human; conditions: peptide enrichment day 14 vs day 0
Description: (§1) A peptide tilling screen was performed in A375 similarly to a screen done in MDA-MB-231 (FIG. 1) but with a different lentiviral library. The library (Pan-Cancer library) is composed of 1020 genes tiled every 6 amino acids into 40-mer amino acid long peptides. The gene selection was based on their implication in oncogenesis either being as oncogenes or tumor suppressors. The list was built using recent literature that identified new cancer drivers as well as databases such as Uniprot keywords (KW-0656: Proto-oncogene, KW-0043: Tumor suppressor), and Gene Ontology terms (GO1900117: Apoptosis, GO1901979: Cell cycle checkpoint) (FIG. 2). Aside from Human genes, a list of viral genes was also included (KW-1121: Modulation of host cell cycle by virus) that play roles in high jacking cell cycle progression and thus in oncogenesis (FIG. 2).
(§2) The model of study is melanoma, and this disease is stratified into 4 molecular subtypes, BRAF mutants, NRAS mutants, KIT amplification, NF1 mutations (FIG. 3A). The most prominent mutations found in patient affected with metastatic melanomas are BRAF^V600E and NRAS^Q61K (FIG. 3B). RAS play a key role in oncogenesis and resistance to treatments. Indeed, RAS activating mutations is found in ~20% of all human cancers and secondary NRAS mutation leads to acquired resistance to BRAF targeted therapy such as vemurafenib. Thus, the screen was performed in an A375 cell line model which derived from human BRAF^V600E melanoma as well as an engineered A375 transduced with HA-NRAS^Q61K (FIG. 4A, B). Both cell lines grow at a similar rate but the A375-NRAS^Q61K display more than 10-fold resistance to vemurafenib treatment compared to parental A375 (FIG. 4C, D).
(§3) These cells were transduced with the Pan-Cancer library at a low multiplicity of infection (MOI=0.1-0.3). Then, genomic DNA was extracted at day 0 and day 14 post-transduction to quantify the abundance of peptide for each temporal conditions using Next-generation sequencing. Each experimental replicates were deep sequenced with at least 150 million reads and show a coverage between 82-90% of the initial Pan-Cancer Peptide library (FIG. 5). Then, for each individual peptides a cellular fitness score was calculated based on their enrichment between day 0 and day 14. 8090 peptides negatively affecting growth of A375-WT were identified and 8153 peptides for the A375-NRAS^Q61K cell line (FIG. 6). […] Those common hits are found to be tiles from ~100 genes of the Pan-Cancer gene list and show a substantial biological function clustering.

A375-NRAS^Q61K [2] = experiment: Validation assay: cell growth (CCK8, 48 hours after plating) of cells transduced with single peptide tiles; assay type: cell-based, human; conditions: peptide overexpression
Source text: (§4) FIGS. 9A-9C. (A) Fitness screen validation assay workflow. (B) Validation assay results (C) Fitness screen results.
(§5) All those selected hits mapped to a known protein domain with known roles in protein-protein interaction or protein-DNA interaction. […] When the fold change of every tile on the protein amino acid positions was mapped, functional regions of the protein affecting cell growth were identified. For example, on RAF1, peaks corresponding to the Ras-binding domain (RBD) were identified, and the kinase domain (FIG. 8A). […] In addition, a region of MYC that affect cell growth was identified and mapped on the DNA binding domain bHLH (FIG. 8). […] To validate the results from the screen, A375-WT and -NRAS^Q61K were transduced with GFP_147, or RAF1_78, MYC_384, or KIT_499, or SOS_120 tiles and cell growth measured using CCK8 assay
(§6) 48 hours after plating (FIG. 9A). […] The CR2 domain of BRAF contain a 14-3-3 binding site and play a role in BRAF-MEK autoinhibitory complex which regulates MAPK pathway activation. One of the goals of this contextual PepTile screen was to identify peptides that would impair growth of NRAS cell line but not the parental, to address overall NRAS-driven drug resistance. For instance, more than 6000 peptide hits were detected that are exclusive to A375-NRAS^Q61K (FIG. 6). For example, ARHGAP20 and ARHGAP26 show a very different PepTile profiles between A375-NRAS^Q61K and A375-WT (FIG. 11) and seem to have more of an effect in the A375-NRAS^Q61K condition. Altogether, the Pan-Cancer PepTile screen show the potential of finding new potential peptides to target NRAS melanoma, as well as mapping protein domains involved in cellular growth in a given context.

A375-WT [3] = experiment: Pan-Cancer PepTile/PiTile fitness screen (lentiviral 40-mer peptide library, NGS abundance); assay type: cell-based, human; design: key: enrichment of each peptide's NGS abundance, early day vs Day 14; conditions: Pan-Cancer library, peptide enrichment day 14 vs day 0
Source text: FIGS. 13A-13D show Pan-Cancer PiTile Workflow. (A) The Pan-Cancer peptide library is composed of 1081 proteins tiled into 40-mer peptides at every 6 amino acids of the parental protein. The DNA-encoded library is cloned into lentiviral vectors and packaged into lentivirus. (B) A375 cell line was transduced with the Pan-Cancer PiTile library. Genomic DNA was then harvested at Day2 and Day 14 post-transduction and cell populations abundance expressing the different peptides were quantified using Next-Generation Sequencing (NGS). Peptide fitness score was then calculated by the abundance of each peptide at Day2 versus Day 14. Then the fitness signal is mapped over the original amino acid positions of the derived protein. (C) Coverage of the plasmid Pan-Cancer library and peptide-amplicons from Day2 and Day 14 replicated was determined by NGS. (D) Dot plot of the experimental result obtain from screening the Pan-Cancer library in A375 cell line.
as §1, §2, §3
We built a DNA-encoded peptide library composed of all known Human oncogenes and Tumor Suppressors that we fragmented in 40 amino acid long peptides, the Pan-Cancer library. Using lentiviral expression system, we transduced the Pan-Cancer library in A375 cell line. After 14 days of growth, the frequency of each peptide is measured by NGS and this reveal which peptides affect cell fitness. […]

A375-WT [4] = experiment: Validation assay: cell growth (CCK8, 48 hours after plating) of cells transduced with single peptide tiles; assay type: cell-based, human; conditions: peptide overexpression
Description: as §4
(§7) FIGS. 14A-14E show PiTiles derived from DNA-binding domains of MYC and SOX17 inhibit transcriptional program. (A) Experimental workflow of A375 cell line individually transduced with lentivirus expressing GFP_147, MYC_384 or SOX17_96. 5 days post-transductions, RNA was harvested for RNA sequencing. Additionally, cells were plated for a 48-hour growth assay. (B) Cell growth of A375 cell line expressing GFP_147 (control), MYC_384 and SOX17_96. […] Red bar=FDR<0.05. We observe a negative peak in bHLHzip domain of MYC as well as HMG box domain of SOX17. Both domains mediated binding to DNA. (D) Principal Component Analysis of RNA-sequencing for both biological replicates of GFP_147, MYC_384 and SOX17_96 expressing cell lines. (E) A375 RNAseq data was analyzed using Gene Set Enrichment Analysis. For MYC_384 versus GFP_147 over ODONNEL_TARGET_OF_MYC_and_TFRC. For SOX17_96 versus GFP_147 over PRANMOOJAGO_SOX4.
as §5, §6

[5] = test system: SOX17 transcriptional program (PRANMOOJAGO_SOX4); experiment: RNA-sequencing GSEA of A375 expressing SOX17_96 versus GFP_147; assay type: cell-based, human; conditions: 5 days post-transduction
Description: as §7

MDA-MB-231 = conditions: cited from earlier work
[6] = test system: MYC transcriptional program (ODONNEL_TARGET_OF_MYC_and_TFRC); experiment: RNA-sequencing GSEA of A375 expressing MYC_384 versus GFP_147; assay type: cell-based, human; conditions: 5 days post-transduction
Description: as §7

| Substance | A375-NRAS Fitness Score (A375-NRAS^Q61K [1]) | cell growth compared to GFP_147 (A375-NRAS^Q61K [2]) | A375-WT Fitness Score (A375-WT [3]) | cell growth compared to GFP_147 (A375-WT [4]) | GSEA of SOX17 transcriptional program [5] | hit in previous screen (MDA-MB-231) | GSEA of MYC transcriptional program [6] | cell growth compared to GFP_147 (A375-WT [4]; listed as MYC_384) |
| --- | --- | --- | --- | --- | --- | --- | --- | --- |
| SOS1_21: 40-mer peptide tile of SOS1, AA start position 120, HF domain | −0.81 | not affected | −2.56 | decreases cell growth | – | – | – | – |
| SOX17_17: 40-mer peptide tile of SOX17, AA start position 96, HMG box | −0.77 | – | −4.49 | cell growth defect | downregulation of their respective transcriptional programs | – | – | – |
| MYC_65: 40-mer peptide tile of MYC, AA start position 384, bHLH domain (ELKRSFFALRDQIPELENNEKAPKVVILKKATAYILSVQA; UniProt P01106 384-423, looked up, fragment) | −0.47 | not affected | −2.50 | – | – | identified and validated | downregulation of their respective transcriptional programs | cell growth defect; also recorded: decreases cell growth |
| RAF1_14: 40-mer peptide tile of RAF1, AA start position 78, RBD (LHDCLMKALKVRGLQPECCAVFRLLHEHKGKKARLDWNTD; UniProt P04049 78-117, looked up, fragment) | −0.50 | much less affected | −1.79 | decreases cell growth | – | identified and validated | – | – |
| KIT_84: 40-mer peptide tile of KIT, AA start position 498, Transmembrane domain (GKTSAYFNFAFKGNNKEQIHPHTLFTPLLIGFVIVAGMMC; UniProt P10721 498-537, looked up, fragment) | −0.77 | much less affected | −3.23 | decreases cell growth | – | – | – | – |

From patent publication US20260285924A1, “PEPTIDE THERAPEUTICS” (priority 2023, published 2026)
